# Legend:
# [1] = Kinetic solubility of compound at pH 7.4; conditions: buffer
# [2] = Distribution coefficient, logD of the compound at pH 7.4; conditions: octanol/water
# [3] = target: T1, Estrogen receptor (Homo sapiens) (UniProt P03372); conditions: MCF7, dose 0.0002-100 nM, time 4.0 hrs
# T1 sequence (whole entry): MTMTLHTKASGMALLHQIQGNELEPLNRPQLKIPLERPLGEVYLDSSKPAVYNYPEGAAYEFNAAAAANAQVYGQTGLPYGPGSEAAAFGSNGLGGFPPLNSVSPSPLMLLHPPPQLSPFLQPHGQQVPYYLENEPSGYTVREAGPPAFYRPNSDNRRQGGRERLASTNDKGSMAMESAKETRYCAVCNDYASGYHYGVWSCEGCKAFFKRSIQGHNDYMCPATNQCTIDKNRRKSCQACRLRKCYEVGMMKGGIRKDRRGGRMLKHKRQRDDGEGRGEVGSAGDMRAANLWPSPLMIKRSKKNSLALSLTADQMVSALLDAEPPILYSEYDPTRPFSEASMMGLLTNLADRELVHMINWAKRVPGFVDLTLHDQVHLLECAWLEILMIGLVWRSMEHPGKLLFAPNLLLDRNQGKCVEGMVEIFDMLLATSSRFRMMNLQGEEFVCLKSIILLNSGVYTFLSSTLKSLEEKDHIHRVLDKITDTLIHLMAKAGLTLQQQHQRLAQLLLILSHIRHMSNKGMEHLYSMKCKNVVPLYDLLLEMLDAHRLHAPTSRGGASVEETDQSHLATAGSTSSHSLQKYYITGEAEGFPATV
# [4] = target: T1, Estrogen receptor (Homo sapiens); conditions: MCF7, dose 1.0 nM, time 0.5-24 hrs
# [5] = system: MCF7; test: cells; conditions: Homo sapiens, MCF7, 72 h
# Description: Antiproliferative activity against human MCF-7 cells incubated for 72 hrs by Cell-titer Glo assay
# [6] = in vitro; conditions: human
# [7] = in vitro; conditions: rat
# [8] = target: Nav1.5 (Homo sapiens, UniProt Q14524); test: Inhibition of human Nav1.5 expressed in CHO cells at 10 uM by QPatch HT assay; conditions: CHO cells expressing human Nav1.5
# Sequence of Nav1.5 (Q14524 whole entry): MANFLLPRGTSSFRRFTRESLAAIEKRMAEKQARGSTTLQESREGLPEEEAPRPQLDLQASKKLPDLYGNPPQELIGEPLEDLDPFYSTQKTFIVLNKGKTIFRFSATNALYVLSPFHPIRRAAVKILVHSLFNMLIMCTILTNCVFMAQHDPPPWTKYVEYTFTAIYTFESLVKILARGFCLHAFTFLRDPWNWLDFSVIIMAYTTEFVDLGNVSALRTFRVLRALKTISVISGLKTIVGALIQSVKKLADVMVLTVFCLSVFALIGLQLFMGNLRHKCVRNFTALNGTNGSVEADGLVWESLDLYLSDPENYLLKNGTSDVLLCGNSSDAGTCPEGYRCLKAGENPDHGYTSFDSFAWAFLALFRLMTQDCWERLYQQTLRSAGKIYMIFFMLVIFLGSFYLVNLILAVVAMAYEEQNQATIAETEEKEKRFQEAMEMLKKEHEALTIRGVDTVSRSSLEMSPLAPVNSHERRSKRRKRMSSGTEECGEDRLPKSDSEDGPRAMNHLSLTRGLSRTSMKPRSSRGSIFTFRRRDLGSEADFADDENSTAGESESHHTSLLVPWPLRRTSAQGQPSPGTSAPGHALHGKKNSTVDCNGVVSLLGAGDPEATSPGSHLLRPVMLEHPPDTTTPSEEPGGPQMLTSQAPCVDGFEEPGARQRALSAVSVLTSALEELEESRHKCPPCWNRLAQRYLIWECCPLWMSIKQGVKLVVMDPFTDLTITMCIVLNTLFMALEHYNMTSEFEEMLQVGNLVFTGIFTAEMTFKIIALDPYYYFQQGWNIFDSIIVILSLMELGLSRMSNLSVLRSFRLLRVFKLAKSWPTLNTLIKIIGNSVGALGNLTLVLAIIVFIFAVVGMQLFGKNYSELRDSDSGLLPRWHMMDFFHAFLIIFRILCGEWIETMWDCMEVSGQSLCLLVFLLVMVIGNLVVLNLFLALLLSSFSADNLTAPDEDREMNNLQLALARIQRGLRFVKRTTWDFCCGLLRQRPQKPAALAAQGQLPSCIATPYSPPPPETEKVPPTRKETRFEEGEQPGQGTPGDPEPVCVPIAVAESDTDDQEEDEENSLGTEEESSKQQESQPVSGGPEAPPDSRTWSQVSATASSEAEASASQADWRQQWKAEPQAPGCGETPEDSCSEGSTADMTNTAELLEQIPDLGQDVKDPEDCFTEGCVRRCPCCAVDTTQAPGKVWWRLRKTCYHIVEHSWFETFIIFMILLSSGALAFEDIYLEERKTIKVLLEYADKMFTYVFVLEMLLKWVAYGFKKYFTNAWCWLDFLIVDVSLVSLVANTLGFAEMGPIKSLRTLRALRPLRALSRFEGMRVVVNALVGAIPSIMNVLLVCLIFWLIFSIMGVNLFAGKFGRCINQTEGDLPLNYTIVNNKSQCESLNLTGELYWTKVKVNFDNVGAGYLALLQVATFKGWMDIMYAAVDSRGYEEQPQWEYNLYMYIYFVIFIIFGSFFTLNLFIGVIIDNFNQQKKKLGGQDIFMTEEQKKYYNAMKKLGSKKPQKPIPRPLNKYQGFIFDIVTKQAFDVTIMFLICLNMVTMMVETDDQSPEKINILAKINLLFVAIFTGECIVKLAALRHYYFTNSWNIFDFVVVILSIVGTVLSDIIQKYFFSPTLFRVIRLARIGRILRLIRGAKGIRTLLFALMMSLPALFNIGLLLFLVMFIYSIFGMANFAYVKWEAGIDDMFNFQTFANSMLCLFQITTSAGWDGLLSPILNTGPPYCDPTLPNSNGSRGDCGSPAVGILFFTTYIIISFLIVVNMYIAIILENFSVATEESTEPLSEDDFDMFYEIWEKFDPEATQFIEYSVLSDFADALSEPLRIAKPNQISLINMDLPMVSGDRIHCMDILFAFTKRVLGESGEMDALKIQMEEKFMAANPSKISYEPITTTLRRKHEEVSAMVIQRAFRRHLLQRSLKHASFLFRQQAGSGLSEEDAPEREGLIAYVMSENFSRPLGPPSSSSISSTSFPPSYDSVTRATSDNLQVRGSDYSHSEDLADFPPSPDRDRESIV
# [9] = target: Cav1.2 (Homo sapiens, UniProt Q13936); test: Inhibition of human Cav1.2 expressed in CHO cells at 10 uM by QPatch HT assay; conditions: CHO cells expressing human Cav1.2
# Sequence of Cav1.2 (Q13936 whole entry): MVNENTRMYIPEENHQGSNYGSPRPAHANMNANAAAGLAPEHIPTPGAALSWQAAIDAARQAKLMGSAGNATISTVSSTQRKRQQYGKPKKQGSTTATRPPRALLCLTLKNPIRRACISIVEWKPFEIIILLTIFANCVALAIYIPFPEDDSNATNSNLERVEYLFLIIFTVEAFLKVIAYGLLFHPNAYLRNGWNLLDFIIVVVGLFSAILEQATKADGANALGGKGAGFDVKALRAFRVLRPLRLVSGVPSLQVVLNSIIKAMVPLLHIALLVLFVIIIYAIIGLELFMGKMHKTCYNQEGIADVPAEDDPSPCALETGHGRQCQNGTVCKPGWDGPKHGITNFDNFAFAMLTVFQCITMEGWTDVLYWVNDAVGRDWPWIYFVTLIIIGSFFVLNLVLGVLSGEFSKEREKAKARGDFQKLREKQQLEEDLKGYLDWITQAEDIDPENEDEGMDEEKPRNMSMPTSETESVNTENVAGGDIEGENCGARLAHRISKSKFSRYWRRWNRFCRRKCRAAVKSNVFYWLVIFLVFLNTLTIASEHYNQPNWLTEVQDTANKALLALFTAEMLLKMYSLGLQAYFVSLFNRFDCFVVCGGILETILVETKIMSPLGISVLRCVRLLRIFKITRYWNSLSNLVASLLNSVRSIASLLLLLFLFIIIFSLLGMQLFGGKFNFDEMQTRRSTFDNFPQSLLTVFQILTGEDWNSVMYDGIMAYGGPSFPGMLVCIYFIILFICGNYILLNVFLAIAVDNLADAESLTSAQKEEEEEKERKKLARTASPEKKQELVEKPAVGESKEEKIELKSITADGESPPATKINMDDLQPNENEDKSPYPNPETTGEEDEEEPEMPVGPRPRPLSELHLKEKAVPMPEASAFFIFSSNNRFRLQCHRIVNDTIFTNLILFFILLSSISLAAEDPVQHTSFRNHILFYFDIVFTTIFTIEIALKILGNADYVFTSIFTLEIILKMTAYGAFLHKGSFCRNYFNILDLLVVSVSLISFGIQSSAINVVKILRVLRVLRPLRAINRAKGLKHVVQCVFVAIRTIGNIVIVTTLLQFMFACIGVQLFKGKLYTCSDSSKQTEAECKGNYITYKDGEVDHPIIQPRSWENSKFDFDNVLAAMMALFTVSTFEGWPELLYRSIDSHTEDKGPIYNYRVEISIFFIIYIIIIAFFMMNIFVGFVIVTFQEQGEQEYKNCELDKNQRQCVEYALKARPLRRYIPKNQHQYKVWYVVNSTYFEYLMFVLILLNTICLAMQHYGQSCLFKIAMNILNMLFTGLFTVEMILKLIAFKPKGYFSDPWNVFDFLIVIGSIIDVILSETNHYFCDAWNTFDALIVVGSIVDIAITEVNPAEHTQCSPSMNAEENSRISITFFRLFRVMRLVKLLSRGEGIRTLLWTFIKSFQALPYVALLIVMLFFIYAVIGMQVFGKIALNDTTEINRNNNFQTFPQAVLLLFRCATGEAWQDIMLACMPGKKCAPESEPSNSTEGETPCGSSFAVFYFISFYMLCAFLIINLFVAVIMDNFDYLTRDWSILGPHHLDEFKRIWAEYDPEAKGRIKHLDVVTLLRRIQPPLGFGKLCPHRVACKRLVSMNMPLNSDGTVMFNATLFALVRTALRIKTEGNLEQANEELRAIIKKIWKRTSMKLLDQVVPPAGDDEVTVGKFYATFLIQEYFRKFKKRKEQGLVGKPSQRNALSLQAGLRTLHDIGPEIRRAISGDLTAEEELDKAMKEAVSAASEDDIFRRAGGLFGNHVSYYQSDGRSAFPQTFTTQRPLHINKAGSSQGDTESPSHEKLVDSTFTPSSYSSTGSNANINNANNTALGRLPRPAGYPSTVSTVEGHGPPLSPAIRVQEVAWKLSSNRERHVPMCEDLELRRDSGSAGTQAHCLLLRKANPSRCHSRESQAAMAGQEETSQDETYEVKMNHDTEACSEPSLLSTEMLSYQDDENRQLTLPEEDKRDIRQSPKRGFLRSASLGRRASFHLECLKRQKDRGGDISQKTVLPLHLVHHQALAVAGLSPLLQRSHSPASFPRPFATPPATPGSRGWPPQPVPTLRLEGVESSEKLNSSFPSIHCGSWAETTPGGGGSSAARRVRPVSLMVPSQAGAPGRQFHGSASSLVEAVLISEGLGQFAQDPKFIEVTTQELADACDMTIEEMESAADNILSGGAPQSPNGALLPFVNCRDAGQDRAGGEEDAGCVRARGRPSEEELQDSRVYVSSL
# [10] = rat, in vivo, iv, 1 mg/kg
# [11] = in vivo; conditions: Sprague-Dawley, rat, iv, 1 mg/kg
# [12] = in vitro; conditions: human; remark: listed apart in the source
# [13] = in vitro; conditions: rat; remark: listed apart in the source
# [14] = Apparent permeability in MDCK cells across apical to basolateral side at 10 uM incubated for 3 hrs by LC-MS/MS analysis; conditions: dog
# [15] = in vivo; conditions: Sprague-Dawley, rat, po, 5 mg/kg
# [16] = target: Cytochrome P450 2D6 (Homo sapiens, UniProt P10635); test: Reversible inhibition of CYP2D6 in human liver microsomes using dextromethorphan as substrate preincubated for 10 mins followed by NADPH addition by LC/MS/MS analysis
# [17] = target: Cytochrome P450 2C9 (Homo sapiens, UniProt P11712); test: Reversible inhibition of CYP2C9 in human liver microsomes using (s)-warfarin as substrate preincubated for 30 mins followed by NADPH addition by LC/MS/MS analysis
# [18] = target: Cytochrome P450 2C19 (Homo sapiens, UniProt P33261); test: Reversible inhibition of CYP2C19 in human liver microsomes using (S)-Mephenytoin as substrate preincubated for 40 mins followed by NADPH addition by LC/MS/MS analysis
# [19] = target: T2, CYP3A4 (Homo sapiens, UniProt P08684); test: Time dependent inhibition of CYP3A4 in human liver microsomes using midazolam as substrate incubated for 10 mins by LC-MS/MS analysis
# T2 sequence (P08684 whole entry): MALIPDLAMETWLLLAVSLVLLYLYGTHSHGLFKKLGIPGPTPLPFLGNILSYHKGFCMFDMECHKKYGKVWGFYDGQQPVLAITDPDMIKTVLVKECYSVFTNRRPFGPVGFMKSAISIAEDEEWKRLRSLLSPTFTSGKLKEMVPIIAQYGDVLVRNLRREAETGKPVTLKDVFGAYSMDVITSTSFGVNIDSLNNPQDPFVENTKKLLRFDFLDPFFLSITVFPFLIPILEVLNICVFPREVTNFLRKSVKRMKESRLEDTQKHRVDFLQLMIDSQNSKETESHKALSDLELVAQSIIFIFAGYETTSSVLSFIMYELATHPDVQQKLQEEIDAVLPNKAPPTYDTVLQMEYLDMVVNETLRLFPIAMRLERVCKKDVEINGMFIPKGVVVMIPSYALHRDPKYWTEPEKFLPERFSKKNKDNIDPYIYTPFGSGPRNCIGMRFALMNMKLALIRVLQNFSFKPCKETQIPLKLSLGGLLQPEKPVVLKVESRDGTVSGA
# [20] = target: T2, CYP3A4; test: Time dependent inhibition of CYP3A4 in human liver microsomes using testosterone as substrate incubated for 10 mins by LC-MS/MS analysis
# [21] = target: T3, CYP1A2 (Homo sapiens, UniProt P05177); test: Time dependent inhibition of CYP1A2 in human liver microsomes using phenacetin as substrate incubated for 30 mins by LC-MS/MS analysis
# T3 sequence (P05177 whole entry): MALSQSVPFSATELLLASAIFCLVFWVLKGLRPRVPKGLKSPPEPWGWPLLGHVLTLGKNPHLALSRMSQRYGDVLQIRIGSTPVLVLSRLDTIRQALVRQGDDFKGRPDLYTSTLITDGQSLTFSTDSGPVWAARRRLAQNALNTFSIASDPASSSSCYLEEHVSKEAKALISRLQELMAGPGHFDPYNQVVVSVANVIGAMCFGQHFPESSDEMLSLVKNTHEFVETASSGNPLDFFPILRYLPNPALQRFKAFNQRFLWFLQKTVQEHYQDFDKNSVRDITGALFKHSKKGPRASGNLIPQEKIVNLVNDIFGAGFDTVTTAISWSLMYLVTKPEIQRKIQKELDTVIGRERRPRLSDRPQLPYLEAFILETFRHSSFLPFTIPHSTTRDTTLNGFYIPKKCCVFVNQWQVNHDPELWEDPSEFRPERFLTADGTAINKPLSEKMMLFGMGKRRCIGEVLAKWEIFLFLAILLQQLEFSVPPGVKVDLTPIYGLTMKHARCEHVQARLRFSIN
# [22] = target: CYP2C9 (Homo sapiens, UniProt P11712); test: Time dependent inhibition of CYP2C9 in human liver microsomes using s-warfarin as substrate incubated for 30 mins by LC-MS/MS analysis
# [23] = target: CYP2C19 (Homo sapiens, UniProt P33261); test: Time dependent inhibition of CYP2C19 in human liver microsomes using (s)-mephenytoin as substrate incubated for 40 mins by LC-MS/MS analysis
# [24] = target: CYP2D6 (Homo sapiens, UniProt P10635); test: Time dependent inhibition of CYP2D6 in human liver microsomes using dextromethorphan as substrate incubated for 10 mins by LC-MS/MS analysis
# [25] = target: Voltage-gated inwardly rectifying potassium channel KCNH2 (Homo sapiens, UniProt Q12809); test: Inhibition of human ERG expressed in HEK293 cells incubated for 5 mins by patch clamp assay
# [26] = Volume of distribution at steady state in Sprague-Dawley rat at 1 mg/kg, iv or po measured after 0.033 to 24 hrs by LC/MS/MS analysis; conditions: in vivo
# [27] = Volume of distribution at steady state in Beagle dog at 1 mg/kg, iv or po measured after 0.033 to 24 hrs by LC/MS/MS analysis; conditions: in vivo
# [28] = Volume of distribution at steady state in cynomolgus monkey at 1 mg/kg, iv or po measured after 0.033 to 24 hrs by LC/MS/MS analysis; conditions: in vivo
# [29] = Half life in Sprague-Dawley rat at 1 mg/kg, iv or po measured after 0.033 to 24 hrs by LC/MS/MS analysis; conditions: in vivo
# [30] = Half life in Beagle dog at 1 mg/kg, iv or po measured after 0.033 to 24 hrs by LC/MS/MS analysis; conditions: in vivo
# [31] = Half life in cynomolgus monkey at 1 mg/kg, iv or po measured after 0.033 to 24 hrs by LC/MS/MS analysis; conditions: in vivo
# [32] = target: T4, Estrogen receptor (Homo sapiens, UniProt P03372)
# T4 sequence (P03372 whole entry): T1 sequence (whole entry)
# Description: Antagonist activity at estrogen receptor in human T47D cells incubated for 18 hrs by ultra high sensitivity luminescence reporter gene assay
# [33] = target: T4, Estrogen receptor; conditions: mcf7
# Description: Induction of estrogen receptor degradation in human MCF7 cells incubated for 4 hrs by Alexafluor -488 conjugate anti-mouse IgG staining based fluorescence method
# [34] = in vivo; conditions: Sprague-Dawley, rat, po, 1 mg/kg
# [35] = in vivo; conditions: beagle, dog, iv, 1 mg/kg
# [36] = in vivo; conditions: cynomolgus monkey, iv, 1 mg/kg
# [37] = in vivo; conditions: Sprague-Dawley, rat, po, 100 mg/kg
# [38] = in vivo; conditions: beagle, dog, po, 1 mg/kg
# [39] = in vivo; conditions: cynomolgus monkey, po, 1 mg/kg
# [40] = in vivo; conditions: cynomolgus monkey, po, 100 mg/kg
# [41] = in vitro; conditions: mouse, mouse liver microsomes
# [42] = in vitro; conditions: dog, dog liver microsomes
# [43] = in vitro; conditions: cynomolgus monkey, cynomolgus monkey liver microsomes
# [44] = in vitro; conditions: mouse, mouse hepatocytes
# [45] = in vitro; conditions: dog, dog hepatocytes
# [46] = in vitro; conditions: cynomolgus monkey, cynomolgus monkey hepatocytes
structure (smiles),measurement,setting,value
C[C@]12CC[C@@H]3c4ccc(O)cc4C[C@@H](CCCCCCCCC[S+]([O-])CCCC(F)(F)C(F)(F)F)[C@H]3[C@@H]1CC[C@@H]2O (some centres undefined) [FULVESTRANT],solubility kinetic,[1],3 µM
same,logD,[2],> 5
same,Emax,[3],103%
same,T1/2,[4],2.2 h
same,EC50,[5],2.4 nM
same,CLint scaled at 1 h,[6]; hepatocytes,15 mL/min/kg
same,CLint scaled at 1 h,[7]; hepatocytes,29 mL/min/kg
C[C@@H]1Cc2c([nH]c3ccc(F)cc23)[C@@H](c2c(F)cc(NC3CN(CCCF)C3)cc2F)N1CC(F)(F)CO,inhibition at 10 µM,[8],14%
same,inhibition at 10 µM,[9],10.7%
same,CL free,[10],1475 mL/min/kg
same,EC50,[5],0.5 nM
same,clearance,[11],18 mL/min/kg
same,CLint scaled at 1 h,[6]; human hepatocytes,10 mL/min/kg
same,CLint scaled at 1 h,[7]; rat hepatocytes,15 mL/min/kg
same,"CLint scaled at 1 h, 1 µM",[12]; human liver microsomes,10 mL/min/kg
same,"CLint scaled at 1 h, 1 µM",[13]; rat liver microsomes,14 mL/min/kg
CC1=C(c2cccc(O)c2)[C@H](c2ccc(OCCN3CC(CF)C3)cc2)Oc2ccc(O)cc21,solubility kinetic,[1],47 µM
same,"Papp A→B at 3 h, 10 µM",[14],4.6 ×10⁻⁶ cm/s
same,Emax,[3],97%
same,T1/2,[4],6 h
same,bioavailability,[15],17%
same,CLint scaled at 1 h,[7]; hepatocytes,46 mL/min/kg
C[C@@H]1Cc2c([nH]c3ccccc23)[C@@H](c2c(F)cc(NC3CN(CCCF)C3)cc2F)N1CC(F)(F)CO [GIREDESTRANT],IC50,[16],> 10000 nM
same,solubility kinetic,[1],135 µM
same,"Papp A→B at 3 h, 10 µM",[14],3 ×10⁻⁶ cm/s
same,logD,[2],2.9
same,IC50,[17],> 10000 nM
same,IC50,[18],> 10000 nM
same,inhibition at 10 min,[19],-0.9%
same,inhibition at 10 min,[20],-4%
same,inhibition at 0.5 h,[21],1%
same,inhibition at 0.5 h,[22],19%
same,inhibition at 40 min,[23],1.2%
same,inhibition at 10 min,[24],8.1%
same,IC50,[25],6100 nM
same,inhibition at 10 µM,[8],16.7%
same,inhibition at 10 µM,[9],15.7%
same,Vd,[26],15 L/kg
same,Vd,[27],5.1 L/kg
same,Vd,[28],9.4 L/kg
same,half-life,[29],8 h
same,half-life,[30],24 h
same,half-life,[31],7.3 h
same,IC50,[32],0.05 nM
same,DC50,[33],0.03 nM
same,EC50,[5],0.4 nM
same,clearance,[11],21 mL/min/kg
same,bioavailability,[34],41%
same,clearance,[35],3 mL/min/kg
same,clearance,[36],19 mL/min/kg
same,bioavailability,[37],65%
same,bioavailability,[38],55%
same,bioavailability,[39],17%
same,bioavailability,[40],29%
same,CLint scaled at 1 h,[6]; hepatocytes,11 mL/min/kg
same,CLint scaled at 1 h,[7]; hepatocytes,23 mL/min/kg
same,"CLint scaled at 1 h, 1 µM",[12]; microsomes,11 mL/min/kg
same,"CLint scaled at 1 h, 1 µM",[13]; microsomes,19 mL/min/kg
same,"CLint scaled at 1 h, 1 µM",[41],52 mL/min/kg
same,"CLint scaled at 1 h, 1 µM",[42],13 mL/min/kg
same,"CLint scaled at 1 h, 1 µM",[43],22 mL/min/kg
same,CLint scaled at 1 h,[44],33 mL/min/kg
same,CLint scaled at 1 h,[45],< 7.8 mL/min/kg
same,CLint scaled at 1 h,[46],31 mL/min/kg
